Reference: patent publication US4791116A, “N,N-diethyl-N'-[(8α)-1-ethyl-6-methyl-ergolin-8-yl]-sulfamide useful as prolactin secretion inhibitor, anti-parkinson agents and anti-depressant agents” (priority 1983, dated 1988)
Read-outs that look alike come from different tables or passages of the source.

Assays:
[1] = tested on: central dopamine receptor; assay: Ungerstedt test: turning in rats lesioned unilaterally with 6-hydroxy-dopamine (anti-parkinson); format: in vivo, rat
Description: In particular the compounds are useful as central dopamine receptor agents for the treatment of e.g. Morbus Parkinson as indicated in standard tests. For example in rates lesioned unilaterally in the nigro-neostratal dopamine pathway by the effect of a 6-hydroxy-dopamine injection in the substantia nigra the compounds at doses of between about 3 and about 30 mg/kg p.o., according to the method of U.Ungerstedt Acta.physiol.scand.Suppl.387, 69-93 (1971) and substantially the same as that described by J. M. Vigouret et al., Pharmacology 16 (Suppl.1) 156-193 (1978), induce turning in the direction of the non-denerved side over a long period of time, e.g. several hours.

[2] = tested on: implantation; assay: inhibition of implantation in female rats; format: in vivo; details: Rattus norvegicus, sc, read-out: ED50 Implantation
From the text: The effects are for an unexpectedly long period e.g. several hours.

[3] = tolerability in the beagle dog; format: in vivo; details: p.o.

SMILES | Ungerstedt test, No of rotations ([1]; at 0.1 mg/kg s.c.) | ED50 [2] [mg/kg] | Ungerstedt test, No of rotations ([1]; 3 mg/kg p.o., over 7 hours) | anti-parkinson activity relative to prolactin secretion activity ([1]; comparison with prolactin secretion tests) | ED50 ([2]; female rats, s.c.) [mg/kg] | emetic effects [3]
CC(C)C[C@H]1C(=O)N2CCC[C@H]2[C@]2(O)O[C@](NC(=O)[C@@H]3C=C4c5cccc6[nH]c(Br)c(c56)C[C@H]4N(C)C3)(C(C)C)C(=O)N12 [Bromocriptine, reference compound] | 80 | 0.75 |  |  |  | 
CCN(CC)S(=O)(=O)N[C@H]1C[C@@H]2c3cccc4c3c(cn4CC)C[C@H]2N(C)C1 [Example 1, N,N-Diethyl-N'-[(8α)-1-ethyl-6-methyl-ergolin-8-yl]-sulfamide] |  |  | 774 | particularly patent anti-parkinson activity relative to prolactin secretion activity | 0.23 | few emetic effects
CCN(CC)S(=O)(=O)N[C@H]1C[C@@H]2c3cccc4c3c(cn4C(C)C)C[C@H]2N(C)C1 [Example 2, N,N-Diethyl-N'-[(8α)-1-isopropyl-6-methylergolin-8-yl]sulfamide] |  |  | 1608 |  | 0.08 | 
